What all share (format): cell-based, Human
For data set [1], the system named is CHP212. Kind of data set: RealTime-Glo MT cell viability assay. The following applies: Homo sapiens, CHP-212. The procedure: (§1) Cell viability was measured in real time using RealTime-Glo MT Cell Viability Assay as according to manufacturer's instructions from Promega. Cells were seeded at 1 × 10^4 cells per well and treated with a range of doses of indicated antagonists, followed by continuous bioluminescence reading every 24 hours for 3 days using luminescent plate reader, Varioskan (SkanIT software). IC50 was determined using GraphPad Prism software.
(§2) To determine their efficacy in neuroblastoma, a panel of neuroblastoma cell lines including neuroblastoma patient-derived cell lines and noncancerous normal tissue-derived cell lines were treated with increasing doses of each antagonist (0–100 µmol/L), followed by real-time measurement of cell viability every 24 for 72 hours.

Data set [2] relates to NB1. Kind of data set: RealTime-Glo MT cell viability assay. The following applies: Homo sapiens. The procedure: as §1, §2
For data set [3], the system named is NBL01-1116 patient-derived neuroblastoma cells. The data set is described as follows: RealTime-Glo MT cell viability assay. The following applies: Homo sapiens, Neuroblastoma cell. The procedure: as §1, §2
Data set [4] has as its system IMR-32. The data set is described as follows: RealTime-Glo MT cell viability assay. The following applies: Homo sapiens. The procedure:
as §1, §2

Data set [5] relates to BE(2)-C. The data set is described as follows: RealTime-Glo MT cell viability assay. The following applies: Homo sapiens. Here is the method: as §1, §2
The test system of data set [6] is SK-N-AS. The data set is described as follows: RealTime-Glo MT cell viability assay. To be noted: Homo sapiens. Here is the method: as §1, §2
Data set [7] relates to NLF. The data set is described as follows: RealTime-Glo MT cell viability assay. To be noted: Homo sapiens. The procedure:
as §1, §2

For data set [8], the system named is NBL-07-0317 patient-derived neuroblastoma cells. Kind of data set: RealTime-Glo MT cell viability assay. The following applies: Homo sapiens, Neuroblastoma cell. Here is the method:
as §1, §2

Data set [9] concerns KELLY. The data set is described as follows: RealTime-Glo MT cell viability assay. The following applies: Homo sapiens. Here is the method: as §1, §2
Data set [10] has as its system NBL27-0218A patient-derived neuroblastoma cells. The data set is described as follows: RealTime-Glo MT cell viability assay. The following applies: Homo sapiens, Neuroblastoma cell. The procedure: as §1, §2
For data set [11], the system named is NBL16-0118 patient-derived neuroblastoma cells. The data set is described as follows: RealTime-Glo MT cell viability assay. To be noted: Homo sapiens, Neuroblastoma cell. Here is the method: as §1, §2
Data set [12] concerns SK-N-SH. The data set is described as follows: RealTime-Glo MT cell viability assay. To be noted: Homo sapiens. Here is the method: as §1, §2
Data set [13] deals with THLE3 and HS5. The data set is described as follows: Toxicity and tolerability in noncancerous normal tissue-derived cell lines. The following applies: THLE3 and HS5 versus neuroblastoma cells. Here is the method:
as §1
To evaluate this, noncancerous normal tissue-derived cell lines THLE3 and HS5 were utilized to evaluate toxicity and tolerability. […] On the basis of their overall potency and specificity toward neuroblastoma cells over noncancerous normal cells, A4, B3, and BV6 were selected as the more efficacious antagonists to be studied further in subsequent experiments (Fig. 2A).

Data set [14] relates to HS5 (bone marrow origin). Kind of data set: RealTime-Glo MT cell viability assay, noncancerous normal cells. The following applies: Homo sapiens. Here is the method:
as §1, §2
(§3) To evaluate this, noncancerous normal tissue-derived cell lines THLE3 and HS5 were utilized to evaluate toxicity and tolerability.

The subject of data set [15] is THLE3 (liver origin). Described as above. The following applies: Homo sapiens. The procedure:
as §1, §2, §3

The test system of data set [16] is neuroblastoma cells across the panel of cell lines. Kind of data set: Cell viability, IC50 range across the panel. The following applies: Homo sapiens, Neuroblastoma cell; range over cell lines, doses 0–100 µmol/L, viability every 24 for 72 hours; read-out: IC50 against neuroblastoma cells across the panel of cell lines. The procedure:
as §1, with “([…]” for “(SkanIT”, “software. To determine their efficacy in neuroblastoma, a panel of neuroblastoma cell lines including neuroblastoma patient-derived cell lines and noncancerous normal tissue-derived cell lines were treated with increasing doses of each antagonist (0-100 μmol/L), followed by real-time measurement of cell viability every 24 for 72 hours. […] Supplementary Table S2; Fig. 2A). […] Fig. 2A).” for “software.”

Data set [17] deals with BE(2)-C. Kind of data set: Drug interactions assay (Chou-Talalay CI, DRI). The following applies: topotecan dose axis, 48 hours. The procedure: (§4) Drug interactions between XIAP-specific antagonist A4 and vincristine or topotecan were determined using the combination index (CI) by Chou and Talalay which was established on the basis of the mass-action law principle to derive the median-effect equation ([25]). […] Cell viability was measured and CI and dose reduction index (DRI) values were quantified using the CompuSyn software by Chou–Talalay. Areas under the dose–response curves were calculated using the trapezoidal method and compared using paired t test.
(§5) For treatment of high-risk neuroblastoma, current standard-of-care utilizes intensive multimodal therapy involving combinations of multiple cytotoxic agents. […] To analyze potential drug interactions, treatment of BE(2)-C and KELLY cells with A4 in combination with either vincristine or topotecan was examined. Using Chou–Talalay method, the drug interaction effect/type determined by the drug combination (CI) index is as follows: CI <1 (synergistic effect); CI = 1 (additive effect); CI >1 (antagonistic effect).
(§6) CI was generated using CompuSyn software by Chou–Talalay ([25]). CI60–90 represents the average CI at 60%–90% cell death. CI <1 denotes synergistic effect; CI = 1 denotes addictive effect and CI >1 denotes antagonistic effect. […] DRI was generated using CompuSyn software by Chou–Talalay. DRI60–90 represents the average DRI at 60%–90% cell death. DRI <1 denotes unfavorable dose reduction and DRI >1 denotes favorable dose reduction.

Data set [18] deals with KELLY. The data set is described as follows: Drug interactions assay (Chou-Talalay CI, DRI). The following applies: topotecan dose axis, 48 hours. The procedure:
as §4, §5, §6

The values below come from paper PMC10681007, “Targeted Degradation of XIAP is Sufficient and Specific to Induce Apoptosis in MYCN-overexpressing High-risk Neuroblastoma” (Cancer Research Communications, 2023).

The structures appear in SMILES notation. Where a name gives a salt, the structure may show the parent alone.

One may read the IC50 as the concentration at which inhibition is half-maximal. As for `CN[C@@H](C)C(=O)N[C@H](C(=O)N1CCC[C@H]1c1nc(C(=O)c2ccc(F)cc2)cs1)C1CCCCC1` [LCL161], the IC50 in data set [1] (CHP212, 24 hours) is 42 µM; in data set [1] (CHP212, 48 hours) it was 33 µM; in data set [1] (CHP212, 72 hours) it was 31.2 µM; in data set [2] (NB1, 24 hours), > 60 µM; in [2] (NB1, 48 hours), 46.5 µM; in data set [2] (NB1, 72 hours) it was 27.4 µM. In addition, the half-maximal inhibitory concentration (IC50) in data set [3] (NBL01-1116, 24 hours) is 42 µM; in data set [3] (NBL01-1116, 48 hours) it was 36.4 µM; in [3] (NBL01-1116, 72 hours), 36 µM; in data set [4] (IMR-32, 24 hours), > 60 µM; in data set [4] (IMR-32, 48 hours), 30 µM; in data set [4] (IMR-32, 72 hours), 19 µM. Moreover, the IC50 in data set [5] (24 hours) is > 60 µM; in [5] (48 hours), 42.5 µM; in data set [5] (72 hours) it was 32.5 µM; in [6] (24 hours), 34 µM; in data set [6] (48 hours) it was 22.5 µM; in [6] (72 hours), 15.7 µM. The IC50 in data set [7] (24 hours) came out at 32.8 µM; in [7] (48 hours) it was 30.2 µM; in data set [7] (72 hours) it was 28.5 µM; in data set [8] (NBL-07-0317, 24 hours), 33.6 µM; in data set [8] (NBL-07-0317, 48 hours), 31.8 µM; in [8] (NBL-07-0317, 72 hours) it was 30 µM. Moreover, the IC50 in [9] (24 hours) was 48.2 µM; in data set [9] (48 hours) it was 27.6 µM; in data set [9] (72 hours), 21.2 µM; in data set [10] (24 hours), 39 µM; in data set [10] (48 hours), 32.5 µM; in [10] (72 hours), 28.5 µM. Besides, the IC50 stood at 34 µM in [11] (NBL16-0118, 24 hours); 27.5 µM in data set [11] (NBL16-0118, 48 hours); 22.5 µM in data set [11] (NBL16-0118, 72 hours); 55.4 µM in [12] (24 hours); 44 µM in data set [12] (48 hours); 33 µM in [12] (72 hours). The IC50 was 30 µM in data set [14] (HS5, 24 hours); 18 µM in [14] (HS5, 48 hours); 15.5 µM in data set [14] (HS5, 72 hours); > 60 µM in data set [15] (THLE3, 24 hours); 24 µM in data set [15] (THLE3, 48 hours); 14.5 µM in data set [15] (THLE3, 72 hours). Further, the IC50 in [16] is 20 to 60 µM. In addition, the “toxicity to noncancerous cells” value in [13] is recorded as “more toxic toward noncancerous cells than neuroblastoma cells”.
As to `CC[C@@]1(O)C(=O)OCc2c1cc1n(c2=O)Cc2cc3c(CN(C)C)c(O)ccc3nc2-1` [Topotecan, Topotecan hydrochloride], the results for the “AUC of dose–response curve” value in [17] and in data set [18] were 164.6±8.6 nM* luminescence and 352.1±28.9 nM* luminescence, respectively.
